Tests used:
Type in all cases: cell-based
[1] = test system: MDA-MB231, MDA-MB468, and BT-20; assay: Cell colony formation assay; conditions: vs vehicle
Experimental: This assay was used to measure the size and rate of colony formation for TNBC cells, with or without TPH104, as previously reported. Briefly, in a 6-well cell culture plate, cells were seeded at a density of 250,000 cells/well and allowed to grow/attach overnight. The next day, the cells were incubated with different concentration of TPH104 (0.1, 1, or 10 μM) or vehicle and incubated for 12 h at 37° C. Following incubation, the cells were harvested, counted, and reseeded at a density of 500-800 cells/well (1 ml in each well), in a new 6-well plate, with complete medium for 10 days. The medium was changed every 2 days in order to prevent cell starvation. On the 10th day, the colonies were fixed with absolute methanol at room temperature for 30 minutes. Subsequently, cells were stained with 0.1% crystal violet dye (Sigma, USA) for an additional 30 minutes. Finally, the fixed and stained colonies were viewed, pictured (at 4, 10, and 20×) and counted using an EVOS-FLC microscope (Thermo Fisher Scientific, Wayne, MI, USA). The following equation was used to calculate the colony formation rate: Colony formation rate=number of colonies formed/number of seeded cells (500)×100% Trans-Well Migration Assay

MDA-MB468 and MDA-MB231 = assay: Cell cycle analysis (PI, flow cytometry); conditions: 0.5, 1, 2 μM, 12 h
Experimental: The cell cycle analysis was performed to evaluate the effect of TPH104 on the normal cell cycle in the TNBC cell lines (i.e. MDA-MB 468, MDA-MB231 and BT-20). Cells were plated in a 6-well plate at a suitable density as previously described and incubated overnight to allow for cell attachment. The following day, cells were incubated with different TPH104 concentrations (0.5, 1, or 2 μM) or vehicle for 12 h. The cells were harvested by trypsinization and collected in individual test tubes. Subsequently, cells were washed 3× with ice cold PBS and fixed with 70% ethanol for 30 minutes. Following fixation, cells were again washed 3× with intermittent centrifugation at 2000 rpm for 5 minutes and incubated with 100 μl RNAse (from a 100 μg/ml stock) (to ensure that only DNA was stained). Two hundred μl of PI (from a 50 μg/ml stock solution) was added to each test tube and cells were stain cells for at least 15 minutes on ice. Finally, a FACS Calibur flow cytometer (BD Biosciences, San Jose, CA) was used to detect the distribution of the cells following incubation with vehicle or TPH104. FlowJo v10.2 software from FlowJo LLC (Ashland, OR) was used for data analysis.

MDA-MB231 cells = assay: Scratch/wound healing assay
Experimental: MDA-MB231 cells were seeded in a 6 well-plate (10-20,000 cells/well) and incubated at 37° C. until they reached 60-80% confluence and formed a complete monolayer, as previously reported. Subsequently, a wound was created by scratching the monolayer with a 10 μl sterile pipette tip. The floating cells were washed away with sterile PBS, making the wound area clear and completely empty. Immediately following monolayer scratching, TPH104 (0.5, 1, 2, 5 or 10 μM) or vehicle were added to the cell culture media (2 ml total in each well) and incubated at 37° C. for 36 h. The wound closure was monitored over time by taking pictures after 0 h, 12 h, 24 h, and 36 h of incubation using an EVOS-FLC microscope. Image J software NIH, Bethesda, MD, USA) was used to determine the areas of the wound at different time points as previously reported.

[2] = test system: LC3B-I, LC3B-II, LAMP1, Beclin-1, mTOR, ULK1, Rab7, Rab5 in BT-20 TNBC cells; assay: Western blot, autophagy markers
Experimental: The TNBC cells were seeded in a culture flask and incubated for 24 h. The cells were then incubated with different concentrations of the lead compounds and re-incubated for an additional 12 or 24 h. […] The bicinchoninic acid (BCA) was used to determine protein concentration in the cell extracts (G-BIOSCIENCES, St. Louis, MO, USA). […] The membrane was blocked using 5% milk in Tris-buffered Tween 20 saline for 30 minutes. The membrane was then incubated overnight with primary antibodies against Bak, Bax, Bcl-2, caspase9, caspase 3, caspase 7, PARP, cytochrome c, N-cadherin, E-cadherin, c-Myc, dishevelled segment polarity protein 3 (DVL3), dishevelled segment polarity protein 2 (DVL2), Vimentin, mitogen-activated protein kinase kinase (MAPKK also known as MEK1/2), β-catenin, low-density lipoprotein receptor-related protein 6 (LRP6), receptor-interacting protein kinase (RIP), phosphorylated RIP (p-RIP), mixed lineage kinase domain like pseudokinase(MLKL), Caspase 8, light chain 3 (LC3), lysosomal-associated membrane protein 1 (LAMP1), unc-51 like autophagy activating kinase 1 (ULK1), ras associated protein 7 (Rab7), ras associated protein 5 (Rab5), Beclin 1, mechanistic target of rapamycin (mTOR), tumor necrosis factor alpha (TNF-α), tumor necrosis factor receptor 1 (TNFR1), tumor necrosis factor receptor 2 (TNFR2), Fas-associated protein with death domain (FADD), Fas ligand (Fas), TNF-related apoptosis-inducing ligand (TRAIL), death receptor 5 (DR5), Tumor necrosis factor receptor type 1-associated DEATH domain (TRADD), receptor-interacting protein kinase 3 (RIP3), β-actin or GAPDH in 1:1000 dilution in 5% milk or 5% BSA at 4° C. Horseradish peroxidase-labeled (HRP) anti-rabbit or anti-mouse secondary antibodies (1:5,000 dilution) were added and incubated the next day for an additional 1 h. A ChemiDoc™ MP System imaging system from Bio-Rad (Hercules, CA, USA) was used for blots reading. Blots were used to obtain the protein bands, followed by quantification of the bands using image J software (NIH, Bethesda, MD, USA). All of the data were expressed as the ratio of β-actin or GAPDH.

Q: Which results are given for `COc1ccc(O)c(/C=N/Nc2ncnc3scc(-c4ccc(C)cc4)c23)c1` [TPH104]?
A: colony formation rate ([1]; 0.1, 1, 10 μM for 12 h): significantly inhibited; number and size of the colonies formed ([1]; 1 and 10 μM, all 3 TNBC cell lines): significantly decreased; level of cells arrested in the S phase (MDA-MB468 and MDA-MB231): significantly increased; number of cells in the G1 phase (MDA-MB468 and MDA-MB231): significant reduction; death of cells (MDA-MB231 cells; 10 μM, after 12 h of incubation): 70%; mobility and migration (MDA-MB231 cells; 0.5, 1, 2, 5, and 10 μM): significantly decreased; wound closure (MDA-MB231 cells; 1, 2, 5, and 10 μM): significantly reduced; expression levels of ULK1, Rab5, and Rab7 ([2]; 0.5, 1, 2, or 5 μM): significantly reduced; LC3B-I levels ([2]; 0.5, 1, 2, or 5, 12 h): significantly increased; LC3B-II ([2]; 0.5, 1, 2, or 5, 12 h): no significant increase; expression of Beclin 1 ([2]; 1, 2, and 5 μM for 12 h): significantly decreased; expression of mTOR ([2]; 1, 2, or 5 μM for 12 h): significantly increased; expression levels of LAMP1 ([2]; 12 h): no significant change
